Results from patent US11236105B2, “Bicyclic compounds and methods of use” (BioTheryX, Inc., priority 2017, dated 2022).

Test system: TNF-α
Assay: Cell-Based TNFα Inhibition Assay (PBMCs induced with LPS, Meso Scale)
Details: PBMCs pretreated 1 hr, induced with LPS 100 ng/mL 18-24 hrs, supernatant TNF-α; for inhibition at 0.1 µM / inhibition at 1 µM: PBMC; for inhibition at 0.1 µM / % TNFα Inhibition (0.1 μM): 0.1 μM compound; for inhibition at 1 µM / % TNFα Inhibition (1 μM): 1 μM compound
Description: Cell-Based TNFα Inhibition Assay
PBMCs induced with LPS (lipopolysaccharide): Frozen […] blood mononuclear cells (PBMCs) are purchased from AllCells. Cells are quick thawed, washed once with Roswell Park Memorial Institute medium (RPMI)-1640/10% FBS/1% Penicillin/1% Streptomycin and plated in 96 well plates at 200,000 cells per well. Cells are pretreated with DMSO only or the indicated compounds for 1 hr and then induced with […] for 18-24 hrs. The supernatant is analyzed for TNF-α using Meso Scale assay according to manufacturer's protocol. The negative control wells are treated with DMSO. Compound activity is measured as a percentage of the DMSO control.

SMILES | inhibition at 0.1 µM | inhibition at 1 µM | % TNFα Inhibition (0.1 μM) | % TNFα Inhibition (1 μM)
CCOc1cc([C@@H](CS(C)(=O)=O)N2C(=O)c3csc(NC(C)=O)c3C2=O)ccc1OC [Compound 1, (S)—N-(5-(1-(3-ethoxy-4-methoxyphenyl)-2-(methylsulfonyl)ethyl)-4,6-dioxo-5,6-dihydro-4H-thieno[3,4-c]pyrrol-1-yl)acetamide] | 40 to 60% | > 60% | – | –
CCOc1cc([C@@H](CS(C)(=O)=O)N2C(=O)c3csc(NC(=O)C(C)(C)C)c3C2=O)ccc1OC [Compound 2, (S)—N-(5-(1-(3-ethoxy-4-methoxyphenyl)-2-(methylsulfonyl)ethyl)-4,6-dioxo-5,6-dihydro-4H-thieno[3,4-c]pyrrol-1-yl)pivalamide] | < 20% | > 60% | – | –
CCOc1cc([C@@H](CS(C)(=O)=O)N2C(=O)c3csc(NC(=O)COC)c3C2=O)ccc1OC [Compound 3, (S)—N-(5-(1-(3-ethoxy-4-methoxyphenyl)-2-(methylsulfonyl)ethyl)-4,6-dioxo-5,6-dihydro-4H-thieno[3,4-c]pyrrol-1-yl)-2-methoxyacetamide] | 40 to 60% | > 60% | – | –
CCOc1cc([C@@H](CS(C)(=O)=O)N2C(=O)c3csc(N(C(=O)C4CC4)C(=O)C4CC4)c3C2=O)ccc1OC [Compound 4] | < 20% | 40 to 60% | – | –
CCOc1cc([C@@H](CS(C)(=O)=O)N2C(=O)c3csc(NC(=O)C(C)C(F)(F)F)c3C2=O)ccc1OC (stereo partly drawn) [Compound 5, N-(5-((S)-1-(3-ethoxy-4-methoxyphenyl)-2-(methylsulfonyl)ethyl)-4,6-dioxo-5,6-dihydro-4H-thieno[3,4-c]pyrrol-1-yl)-3,3,3-trifluoro-2-methylpropanamide] | 20 to 40% | > 60% | – | –
CCOc1cc([C@@H](CS(C)(=O)=O)N2C(=O)c3csc(NC(=O)C(CC)CC)c3C2=O)ccc1OC [Compound 6] | 40 to 60% | > 60% | – | –
CCOc1cc([C@@H](CS(C)(=O)=O)N2C(=O)c3csc(NC(=O)C(F)(F)F)c3C2=O)ccc1OC [Compound 7, (S)—N-(5-(1-(3-ethoxy-4-methoxyphenyl)-2-(methylsulfonyl)ethyl)-4,6-dioxo-5,6-dihydro-4H-thieno[3,4-c]pyrrol-1-yl)-2,2,2-trifluoroacetamide] | < 20% | < 20% | – | –
CCOc1cc([C@@H](CS(C)(=O)=O)N2C(=O)c3csc(NC(=O)C4CC4)c3C2=O)ccc1OC [Compound 8, (S)—N-(5-(1-(3-ethoxy-4-methoxyphenyl)-2-(methylsulfonyl)ethyl)-4,6-dioxo-5,6-dihydro-4H-thieno[3,4-c]pyrrol-1-yl)cyclopropanecarboxamide] | < 20% | > 60% | – | –
CCOc1cc([C@@H](CS(C)(=O)=O)N2C(=O)c3scc(NC(=O)C(F)(F)F)c3C2=O)ccc1OC [Compound 9, (S)—N-(5-(1-(3-ethoxy-4-methoxyphenyl)-2-(methylsulfonyl)ethyl)-4,6-dioxo-5,6-dihydro-4H-thieno[2,3-c]pyrrol-3-yl)-2,2,2-trifluoroacetamide] | < 20% | 40 to 60% | – | –
CCOc1cc([C@@H](CS(C)(=O)=O)N2C(=O)c3scc(NC(=O)COC)c3C2=O)ccc1OC [Compound 10, (S)—N-(5-(1-(3-ethoxy-4-methoxyphenyl)-2-(methylsulfonyl)ethyl)-4,6-dioxo-5,6-dihydro-4H-thieno[2,3-c]pyrrol-3-yl)-2-methoxyacetamide] | < 20% | 40 to 60% | – | –
CCOc1cc([C@@H](CS(C)(=O)=O)N2C(=O)c3scc(NC(=O)C4CC4)c3C2=O)ccc1OC [Compound 11, (S)—N-(5-(1-(3-ethoxy-4-methoxyphenyl)-2-(methylsulfonyl)ethyl)-4,6-dioxo-5,6-dihydro-4H-thieno[2,3-c]pyrrol-3-yl)cyclopropanecarboxamide] | < 20% | 20 to 40% | – | –
CC(=O)Nc1scc2c1C(=O)N([C@H](CS(C)(=O)=O)c1ccc3c(c1)OCO3)C2=O [Compound 12, N-(5-(1-(benzo[d][1,3]dioxol-5-yl)-2-(methylsulfonyl)ethyl)-4,6-dioxo-5,6-dihydro-4H-thieno[3,4-c]pyrrol-1-yl)acetamide] | < 20% | < 20% | – | –
CS(=O)(=O)C[C@H](c1ccc2c(c1)OCO2)N1C(=O)c2csc(NC(=O)C3CC3)c2C1=O [Compound 13, N-(5-(1-(benzo[d][1,3]dioxol-5-yl)-2-(methylsulfonyl)ethyl)-4,6-dioxo-5,6-dihydro-4H-thieno[3,4-c]pyrrol-1-yl)cyclopropane Carboxamide] | < 20% | < 20% | – | –
CC(=O)Nc1scc2c1C(=O)N([C@H](CS(C)(=O)=O)c1ccc3c(c1)OCCO3)C2=O [Compound 14, N-(5-(1-(2,3-dihydrobenzo[b][1,4]dioxin-6-yl)-2-(methylsulfonyl)ethyl)-4,6-dioxo-5,6-dihydro-4H-thieno[3,4-c]pyrrol-1-yl) acetamide] | < 20% | < 20% | – | –
CCOc1cc([C@@H](CS(=O)(=O)N(C)C)N2C(=O)c3csc(NC(C)=O)c3C2=O)ccc1OC [Compound 15, (S)—N-(5-(2-(N,N-dimethylsulfamoyl)-1-(3-ethoxy-4-methoxyphenyl)ethyl)-4,6-dioxo-5,6-dihydro-4H-thieno[3,4-c]pyrrol-1-yl)acetamide] | < 20% | < 20% | – | –
CS(=O)(=O)C[C@H](c1ccc2c(c1)OCO2)N1C(=O)c2csc(NC(=O)C(F)(F)F)c2C1=O [Compound 16, N-(5-(1-(benzo[d][1,3]dioxol-5-yl)-2-(methylsulfonyl)ethyl)-4,6-dioxo-5,6-dihydro-4H-thieno[3,4-c]pyrrol-1-yl)-2,2,2-trifluoro Acetamide] | < 20% | < 20% | – | –
CS(=O)(=O)C[C@@H](c1ccc2c(c1)OCO2)N1C(=O)c2csc(NC(=O)C(F)(F)F)c2C1=O [Compound 17, N-(5-(1-(benzo[d][1,3]dioxol-5-yl)-2-(methylsulfonyl)ethyl)-4,6-dioxo-5,6-dihydro-4H-thieno[3,4-c]pyrrol-1-yl)-2,2,2-trifluoro Acetamide] | < 20% | < 20% | – | –
CS(=O)(=O)C[C@H](c1ccc2c(c1)OCO2)N1C(=O)c2scc(NC(=O)C(F)(F)F)c2C1=O [Compound 21, N-(5-(1-(benzo[d][1,3]dioxol-5-yl)-2-(methylsulfonyl)ethyl)-4,6-dioxo-5,6-dihydro-4H-thieno[2,3-c]pyrrol-3-yl)-2,2,2-trifluoroacetamide] | < 20% | < 20% | – | –
CS(=O)(=O)C[C@H](c1ccc2c(c1)OCO2)N1C(=O)c2scc(NC(=O)C(F)(F)F)c2C1=O [Compound 22, N-(5-(1-(benzo[d][1,3]dioxol-5-yl)-2-(methylsulfonyl)ethyl)-4,6-dioxo-5,6-dihydro-4H-thieno[2,3-c]pyrrol-3-yl)-2,2,2-trifluoroacetamide] | – | – | C (C = a single percent inhibition value ≤40% and >20%) | C (C = a single percent inhibition value ≤40% and >20%)
CC(=O)Nc1csc2c1C(=O)N([C@H](CS(C)(=O)=O)c1ccc3c(c1)OCO3)C2=O [Compound 23, N-(5-(1-(benzo[d][1,3]dioxol-5-yl)-2-(methylsulfonyl)ethyl)-4,6-dioxo-5,6-dihydro-4H-thieno[2,3-c]pyrrol-3-yl)acetamide] | 20 to 40% | 40 to 60% | – | –
CC(=O)Nc1csc2c1C(=O)N([C@H](CS(C)(=O)=O)c1ccc3c(c1)OCO3)C2=O [Compound 24, N-(5-(1-(benzo[d][1,3]dioxol-5-yl)-2-(methylsulfonyl)ethyl)-4,6-dioxo-5,6-dihydro-4H-thieno[2,3-c]pyrrol-3-yl)acetamide] | – | – | D (D = a single percent inhibition value <20%) | D (D = a single percent inhibition value <20%)
COCC(=O)Nc1csc2c1C(=O)N([C@H](CS(C)(=O)=O)c1ccc3c(c1)OCO3)C2=O [Compound 25, N-(5-(1-(benzo[d][1,3]dioxol-5-yl)-2-(methylsulfonyl)ethyl)-4,6-dioxo-5,6-dihydro-4H-thieno[2,3-c]pyrrol-3-yl)-2-methoxy acetamide] | < 20% | 20 to 40% | – | –
COCC(=O)Nc1csc2c1C(=O)N([C@@H](CS(C)(=O)=O)c1ccc3c(c1)OCO3)C2=O [Compound 26, N-(5-(1-(benzo[d][1,3]dioxol-5-yl)-2-(methylsulfonyl)ethyl)-4,6-dioxo-5,6-dihydro-4H-thieno[2,3-c]pyrrol-3-yl)-2-methoxy acetamide] | < 20% | < 20% | – | –
CC(=O)Nc1scc2c1C(=O)N([C@H](CS(=O)(=O)N(C)C)c1ccc3c(c1)OCO3)C2=O [Compound 27, N-(5-(1-(benzo[d][1,3]dioxol-5-yl)-2-(N,N-dimethylsulfamoyl)ethyl)-4,6-dioxo-5,6-dihydro-4H-thieno[3,4-c]pyrrol-1-yl)acetamide] | < 20% | < 20% | – | –
CCOc1cc([C@H](CS(=O)(=O)N(C)C)N2C(=O)c3csc(NC(C)=O)c3C2=O)ccc1OC [Compound 29, (R)—N-(5-(2-(N,N-dimethylsulfamoyl)-1-(3-ethoxy-4-methoxyphenyl)ethyl)-4,6-dioxo-5,6-dihydro-4H-thieno[3,4-c]pyrrol-1-yl)acetamide] | < 20% | < 20% | – | –
